Experimental findings from PMC13184981, “Discovery and Development of a Potent LIMK2 Isoform-Specific Degrader” (ACS Chemical Biology, 2026) are described below.

One test deals with LIMK2 (Homo sapiens, UniProt P53671). Description: Western blot of endogenous LIMK2 in HuCCT1 cells. The class given is cell-based. Here is the method:
HuCCT1 cell line was cultured in Roswell Park Memorial Institute (RPMI) 1640 medium supplemented with GlutaMAX, 10% fetal bovine serum (FBS), and 1% penicillin/streptomycin. The cell line was maintained in an incubator with 5% CO2 at 37 °C. For the treatment, 3 × 10^5 cells were plated and treated with the compounds and DMSO as the control for 6 h. The cells were then lysed using RIPA buffer (50 mM Tris-HCl pH 7.4, 150 mM NaCl, 1% Triton X-100, 1% NaDOC, 0.1% SDS, 1 mM EDTA), freshly supplemented with protease and phosphatase inhibitor cocktails (Sigma-Aldrich, Darmstadt, Germany). After 1 h incubation on ice, the lysates were centrifuged for 30 min at […], and the protein-containing supernatant was collected. The protein concentrations were determined using Protein Assay Dye Reagent Concentrate (Bradford, Bio-Rad, Hercules, CA, USA) and Pre-Diluted Protein Assay Standards: Bovine Serum Albumin (BSA) Set (Thermo Fisher Scientific, Darmstadt, Germany). Then, equal amounts of protein was mixed with Roti-Load 1 dye (Carl Roth, Karlsruhe, Germany) and 4x Laemmli Buffer (Bio-Rad, Hercules, CA, USA), denatured at 95 °C, and run on NuPAGE 4–12% bis-Tris gels (Thermo Fisher Scientific). Proteins were blotted on methanol-activated PVDF Transfer Membranes (Thermo Fisher Scientific) using the wet transfer method with the transfer buffer (Thermo Fisher Scientific) and 20% methanol. Afterward, the membranes were blocked with 5% milk or 3% BSA in 0.1% TBS-T for 1 h at RT and incubated overnight at 4 °C with primary antibodies: GAPDH (catalog no. 2118, Cell Signaling Technology, MA, USA, 1:1000 dilution), LIMK1 (catalog no. 3842, Cell Signaling Technology, 1:1000 dilution), LIMK2 (catalog no. 3845, 1:500 dilution), phospho-Cofilin (catalog no. 3313, Cell Signaling Technology, 1:1000 dilution), Cofilin (catalog no. 5175, Cell Signaling Technology, 1:1000 dilution). Then, the membranes were washed with 0.1% TBS-T and incubated with secondary horseradish-peroxidase (HRP)-conjugated antibody for 2 h (catalog no. 7074, Cell Signaling Technology, 1:3000 dilution). The membranes were washed again with 0.1% TBS-T before they were developed using X-ray films (Fujifilm, Dusseldorf, Germany).
For orientation: Immunoblotting shows a protein as a band on a membrane.

Test [1] addresses T1, FLAG-tagged CRBN with MOLT-4 cell lysate (Homo sapiens, UniProt P53671+Q96SW2).
T1 construct: LIMK2: endogenous, MOLT-4 cell lysate
Description: PROXICapture pull-down proteomics. As to conditions: 5 μM PROTAC. The class given is binding. The procedure:
Purified FLAG-CRBN was conjugated to FLAG beads (Chromotek, cat. no. ffak) in coimmunoprecipitation buffer (50 mM Tris pH-7.5, 120 mM NaCl, 1% NP40, 0.5 mM EDTA) for 1 h at 4 °C on a rotating shaker, before addition of DMSO or 5 μM THNAN69 for 30 min at 4 °C. Subsequently, ∼ 1 mg of freshly prepared protein lysate from Molt4 cells was added to the prepared beads in IP lysate buffer (50 mM Tris pH-7.5, 120 mM NaCl, 1% NP40, 0.5 mM EDTA, protease inhibitors, phosphatase inhibitors and NEM) for 1 h at 4 °C while rotating. The beads were washed three times with IP buffer and afterward used either for Western blotting or trypsin digestion followed by LC-MS/MS analysis.
Protein-bound flag-CRBN beads were incubated with 20 μL SDC buffer (3% sodium deoxycholate in 50 mM Tris-HCl, pH 8.5) and heated for 5 min at 65 °C, and the supernatant was collected. This step was repeated one more time to get an elute of 40 μL. Further, reduction and alkylation were performed using 5 μL of 5 mM TCEP, 20 mM CAA in 50 mM Tris-HCl, pH 8.5, at 95 °C for 10 min. 500 ng of trypsin in 45 μL 50 mM Tris-HCl (pH 8.5) was added to each sample and kept for digestion at 37 °C overnight. […]
MS raw data were analyzed using FragPipe v21.1, with MSFragger v.4.0 and Philosopher v.5.1.0. […] Label-free quantification was performed using IonQuant v.1.10.27. […]

LIMK2, sequence (P53671 whole entry): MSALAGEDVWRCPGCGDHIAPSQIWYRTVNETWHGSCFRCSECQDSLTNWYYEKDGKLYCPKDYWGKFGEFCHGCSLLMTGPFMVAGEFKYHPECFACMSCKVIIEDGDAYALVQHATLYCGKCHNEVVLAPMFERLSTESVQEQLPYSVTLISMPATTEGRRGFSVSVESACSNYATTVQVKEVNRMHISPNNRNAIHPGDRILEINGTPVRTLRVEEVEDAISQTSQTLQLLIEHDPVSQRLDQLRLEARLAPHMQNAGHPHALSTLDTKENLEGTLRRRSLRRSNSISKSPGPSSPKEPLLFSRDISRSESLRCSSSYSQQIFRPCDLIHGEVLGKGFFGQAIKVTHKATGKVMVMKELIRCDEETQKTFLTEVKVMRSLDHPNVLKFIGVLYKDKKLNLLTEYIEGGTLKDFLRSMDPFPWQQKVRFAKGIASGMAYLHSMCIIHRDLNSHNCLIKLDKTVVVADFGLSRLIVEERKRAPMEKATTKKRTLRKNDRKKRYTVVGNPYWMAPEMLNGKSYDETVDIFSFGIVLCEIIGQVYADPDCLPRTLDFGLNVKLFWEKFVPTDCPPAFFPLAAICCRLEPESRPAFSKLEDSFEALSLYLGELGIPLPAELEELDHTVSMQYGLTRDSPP
T1 sequence (Q96SW2 whole entry): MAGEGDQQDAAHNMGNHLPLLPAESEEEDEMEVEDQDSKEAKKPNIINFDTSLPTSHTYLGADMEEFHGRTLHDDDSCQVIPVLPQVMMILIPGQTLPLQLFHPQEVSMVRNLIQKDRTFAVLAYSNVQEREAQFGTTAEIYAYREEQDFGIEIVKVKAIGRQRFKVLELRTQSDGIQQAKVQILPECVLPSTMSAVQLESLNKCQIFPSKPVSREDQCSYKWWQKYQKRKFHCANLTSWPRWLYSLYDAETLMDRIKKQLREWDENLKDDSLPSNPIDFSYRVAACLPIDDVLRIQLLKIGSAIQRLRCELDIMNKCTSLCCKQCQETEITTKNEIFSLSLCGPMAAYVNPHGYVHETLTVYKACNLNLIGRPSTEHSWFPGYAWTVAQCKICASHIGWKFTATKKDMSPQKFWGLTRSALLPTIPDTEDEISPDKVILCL
T1 sequence (P53671 whole entry): as the sequence (P53671 whole entry) above

Consider `Cc1c(OCc2cn(CCCCC(=O)Nc3ncc(-c4cc(C(F)F)nn4-c4c(Cl)cccc4Cl)s3)nn2)cccc1N1CCC(=O)NC1=O` [22b], for which the “concentration giving near-complete depletion of endogenous LIMK2” value at LIMK2 (HuCCT1, 6 h, Western blot) is 10 nM. For the same molecule, the “LIMK2 degradation (Western blot)” value on LIMK2 (HuCCT1, 6 h treatment) is reported as “strong LIMK2-selective degradation”. In addition, the “proteins enriched by CRBN:PROTAC pull-down” value in test [1] is “selectively recruited and enriched LIMK2 but not LIMK1”.
